The test system of data set [1] is LoVo (human colon adenocarcinoma). Kind of data set: in vitro cytotoxicity (colony growth inhibition) on LoVo cells. The conditions noted are these: for Cytotoxicity after 4h of treatment (IC50) LoVo: lovo cells; for IC50: Homo sapiens, LoVo, 4 h, read-out: Cytotoxicity after 4h of treatment (IC50) LoVo. The method, then: (§1) The biological activity of the compounds according to the inventio was tested in vitro against LoVo (human colon adenocarcinoma) and LoVo/DX cells in comparison with doxorubicin and 4-demethoxydaunorubicin (4-dem-DNR). Table 1. Table 1 -

The next data set has as its system LoVo/DX cells. The experiment in a line: in vitro cytotoxicity (colony growth inhibition) on LoVo/DX cells. The conditions noted are these: for Cytotoxicity after 4h of treatment (IC50) LoVo/DX: lovo/dx cells; for R.I. = Resistance Index = (IC50 LoVo.DX)/(IC50 LoVo): ratio of IC50 on LoVo/DX to IC50 on LoVo, 4h of treatment; for IC50: Homo sapiens, LoVo/DX, read-out: Cytotoxicity after 4h of treatment (IC50) LoVo/DX; for Cytotoxicity after 4h of treatment (IC50) LoVo/DX / IC50: 4 h. On the procedure:
as §1

≈ marks a conversion by molar mass, not a printed value.

The values below come from patent EP0381989A1, “New 4'-epi-4'-amino anthracyclines” (FARMITALIA CARLO ERBA S.r.l., priority 1989, dated 1990).

Turning to “4-demethyl-6-deoxy-3′-deamino-4′-deoxy-4′-epi-amino-doxorubicin [2d]”, the “Cytotoxicity after 4h of treatment (IC50) LoVo” value in data set [1] amounted to 0.0012 µg/mL. In the data set on LoVo/DX cells, the “Cytotoxicity after 4h of treatment (IC50) LoVo/DX” value stood at 0.0038 µg/mL and the “R.I. = Resistance Index = (IC50 LoVo.DX)/(IC50 LoVo)” value (“R.I. = Resistance Index =” for short) worked out at 3.2.

Regarding `C[C@@H]1O[C@@H](O[C@H]2C[C@](O)(C(=O)CO)Cc3c(O)c4c(c(N)c32)C(=O)c2ccccc2C4=O)CC[C@H]1N` [2h, 4-demethoxy-6-deoxy-6-amino-3′-deamino-4′-deoxy-4′-epi-amino-doxorubicin], the IC50 in data set [1] worked out at 0.0062 µg/mL (≈ 0.0125 µM); with LoVo/DX cells it was 0.09 µg/mL (≈ 0.181 µM). In the data set on LoVo/DX cells, the “R.I. = Resistance Index =” value stood at 14.5.

In the case of `C[C@@H]1O[C@@H](O[C@H]2C[C@](O)(C(=O)CO)Cc3c2c(O)c2c(c3[N+](=O)[O-])C(=O)c3ccccc3C2=O)CC[C@H]1N` [2e, 4-demethoxy-11-deoxy-11-nitro-3′-deamino-4′-deoxy-4′-epi-amino-doxorubicin], the IC50 in data set [1] was determined as 0.0484 µg/mL (≈ 0.0919 µM). For the same molecule, in the data set on LoVo/DX cells, the IC50 is 0.205 µg/mL (≈ 0.389 µM) and the “R.I. = Resistance Index =” value is 4.2.

Turning to `C[C@@H]1O[C@@H](O[C@H]2C[C@](O)(C(=O)CO)Cc3c(O)c4c(c([N+](=O)[O-])c32)C(=O)c2ccccc2C4=O)CC[C@H]1N` [2f, 4-demethoxy-6-deoxy-6-nitro-3′-deamino-4′-deoxy-4′-epi-amino-doxorubicin], the IC50 in data set [1] was 0.116 µg/mL (≈ 0.22 µM); with LoVo/DX cells, 2.26 µg/mL (≈ 4.28 µM). In addition, the “R.I. = Resistance Index =” value in the data set with LoVo/DX cells is 19.4.

“4-demethoxy-6-deoxy-6-amino-3′-deamino-4′-deoxy-4′-epi-amino-daunorubicin [1h]”: in data set [1], the “Cytotoxicity after 4h of treatment (IC50) LoVo” value was found to be 0.004 µg/mL. For the same molecule, in the data set with LoVo/DX cells, the “Cytotoxicity after 4h of treatment (IC50) LoVo/DX” value was determined as 0.0086 µg/mL and the “R.I. = Resistance Index =” value is on record as 2.2.

`COc1cccc2c1C(=O)c1c(O)c3c(c(O)c1C2=O)C[C@@](O)(C(=O)CO)C[C@@H]3O[C@H]1C[C@H](N)[C@H](O)[C@H](C)O1` [Doxorubicin, doxorubicin, reference compound]: the IC50 in data set [1] came to 0.06 µg/mL (≈ 0.11 µM). In the data set on LoVo/DX cells, the IC50 was 2.18 µg/mL (≈ 4.01 µM) and the “R.I. = Resistance Index =” value is listed as 36.

Take `CC(=O)[C@]1(O)Cc2c(O)c3c(c(O)c2[C@@H](O[C@H]2CC[C@@H](N)[C@H](C)O2)C1)C(=O)c1c(O)cccc1C3=O` [1a, 4-demethyl-3′-deamino-4′-deoxy-4′-epi-amino-daunorubicin]: the IC50 in data set [1] amounted to 0.0011 µg/mL (≈ 0.00221 µM). Further, in the data set with LoVo/DX cells, the IC50 turned out to be 0.0027 µg/mL (≈ 0.00543 µM) and the “R.I. = Resistance Index =” value was 2.4.

In the case of `CC(=O)[C@]1(O)Cc2c(O)c3c(c(O)c2[C@@H](O[C@H]2C[C@H](N)[C@H](O)[C@H](C)O2)C1)C(=O)c1ccccc1C3=O` [4-dem-DNR, 4-demethoxydaunorubicin, reference compound], in data set [1], the IC50 is 0.02 µg/mL (≈ 0.0402 µM). Moreover, in the data set with LoVo/DX cells, the IC50 was found to be 0.125 µg/mL (≈ 0.251 µM) and the “R.I. = Resistance Index =” value is recorded as 6.

In the case of `CC(=O)[C@]1(O)Cc2c(O)c3c(c(O)c2[C@@H](O[C@H]2CC[C@@H](N)[C@H](C)O2)C1)C(=O)c1c(F)cccc1C3=O` [1c, 4-demethoxy-4-fluoro-3′-deamino-4′-deoxy-4′-epi-amino-daunorubicin], the IC50 in data set [1] was found to be 0.0012 µg/mL (≈ 0.0024 µM). Further, in the data set with LoVo/DX cells, the IC50 is 0.006 µg/mL (≈ 0.012 µM) and the “R.I. = Resistance Index =” value amounted to 5.0.

Consider `C[C@@H]1O[C@@H](O[C@H]2C[C@](O)(C(=O)CO)Cc3c(N)c4c(c(O)c32)C(=O)c2ccccc2C4=O)CC[C@H]1N` [2g, 4-demethoxy-11-deoxy-11-amino-3′-deamino-4′-deoxy-4′-epi-amino-doxorubicin], for which the IC50 in data set [1] was determined as 0.0188 µg/mL (≈ 0.0379 µM); in the data set with LoVo/DX cells, 0.109 µg/mL (≈ 0.22 µM). Besides, in the data set with LoVo/DX cells, the “R.I. = Resistance Index =” value is given as 5.8.
